Assay results reported in patent publication US10294262B2, “7-deazapurine nucleosides for therapeutic uses” (Institute of Organic Chemistry and Biochemistry ASCR, V.V.I., priority 2009, dated 2019).

Key:
[1] = test system: A549; test: Test A: Cytostatic cell culture assay (CC50), SRB, solid tumor cell lines; conditions: Homo sapiens, A549, 120 h, read-out: CC50 Lung A549
Excerpt: Test A: Cytostatic Cell Culture Assay (CC50) for Solid Tumor Cell Lines
This assay is based on quantification of cell mass determination by a colorimetric detection of the cell associated proteins. The assay relies on the ability of sulforhodamine B (SRB) to bind to protein components of cells that have been fixed to tissue-culture plates by trichloroacetic acid (TCA). SRB is a bright-pink aminoxanthene dye with two sulfonic groups that bind to basic amino-acid residues under mild acidic conditions, and dissociate under basic conditions. As the binding of SRB is stochiometric, the amount of dye extracted from stained cells is directly proportional to the cell mass.
Cell lines: All cell lines are obtained from ATCC (Manassas, Va.). Cultivation media containing Glutamax, and trypsin are purchased from Invitrogen (Carlsbad, Calif.). Doxorubicin, Tubercidin, Clofarabine, TCA and SRB are from Sigma-Aldrich (St. Louis, Mo.). Gemcitabine is obtained from Moravek Biochemicals (Brea, Calif.)
• 1. Trypsinize the sub-confluent cells, count them, and adjust the cell concentrations according to the cell counts listed in Table 1. • 2. Distribute the cells into the 96-well plates in 150 μL of media. Incubate the plates overnight in humidified CO2 incubator at 37° C. • 3. Fix one plate of each cell line with TCA. Discard the cultivation media from the plates by flicking them gently and add 100 μL cold 10% (vol/vol) TCA to each well. Incubate the plates at 4 degree refrigerator for 1 hour. Discard TCA from the plates by flicking them gently. Rinse plates four times in a washing basin containing tap water. Store the plates at room temperature. These plates represent cell counts on day zero. • 4. Prepare a set of medium solutions containing various concentrations of tested compounds by making 5-fold serial dilutions in 96-well plate. Add 50 μL of the diluted compounds per well. Include controls with untreated cells and cells treated with doxorubicin, tubercidin, clofarabine and/or gemcitabine. • 5. Incubate the plates for 5 days at 37° C. • 6. Fix the plates with TCA. Discard the cultivation media from the plates by flicking them gently and add 100 μL cold 10% (vol/vol) TCA to each well. Incubate the plates at 4 degree refrigerator for 1 hour. Discard TCA from the plates by flicking them gently. Rinse plates four times in a washing basin containing tap water. • 7. Remove excess water by tapping the plates face down, gently on a paper towel. Allow the plates to air-dry at room temperature. • 8. Add 100 μL of 0.057% SRB solution in 1% (vol/vol) acetic acid to each well of the plates fixed with TCA on day zero and five. Leave at room temperature for 30 minutes. • 9. Flick the plates gently to discard SRB. Rinse the plates four times with 1% (vol/vol) Acetic Acid. • 10. Store the plates at 37° incubator to facilitate faster drying. • 11. Once the plates are completely dry, add 200 μL of 10 mM Tris base solution (pH 10.5) to each well. Leave at room temperature for 30 minutes for SRB to solubilize. • 12. Measure the OD at 500 nm in a microplate reader. • 13. Calculate the percentage of cell-growth inhibition using the next formula: % of control cell growth=100×(ODsample−mean ODday0)/(ODneg control−mean ODday0). For CC50 determination, plot a dose-response curves between the compound concentration and percent of growth inhibition. CC50 values can be derived by fitting dose-response curves using sigmoidal dose response equation.

[2] = test system: Du145; test: as above; type: cell-based; conditions: Homo sapiens, DU-145, 120 h, read-out: CC50 Prostate Du145
Protocol: (§1) Gemcitabine is obtained from Moravek Biochemicals (Brea, Calif.)
(§2) • 1. […] Fix one plate of each cell line with TCA. […] Discard TCA from the plates by flicking them gently. […] Store the plates at room temperature. These plates represent cell counts on day zero. • 4. […] Add 50 μL of the diluted compounds per well. […] Fix the plates with TCA. […] Discard TCA from the plates by flicking them gently. […] Leave at room temperature for 30 minutes. • 9. Flick the plates gently to discard SRB.

[3] = test system: HCT116; test: as above; type: cell-based; conditions: Homo sapiens, HCT-116, 120 h, read-out: CC50 Colon HCT116
Protocol: as §1, §2

[4] = test system: HCT15; test: as above; type: cell-based; conditions: Homo sapiens, HCT-15, 120 h, read-out: CC50 Colon HCT15
Protocol: as §1, §2

[5] = test system: HS578; test: as above; type: cell-based; conditions: Homo sapiens, Hs578, 120 h, read-out: CC50 Breast HS578
Protocol: as §1, §2

[6] = test system: NCI H23; test: as above; type: cell-based; conditions: Homo sapiens, NCI-H23, 120 h, read-out: CC50 Lung NCI H23
Protocol: as §1, §2

[7] = test system: PC3; test: as above; type: cell-based; conditions: Homo sapiens, PC-3, 120 h, read-out: CC50 Prostate PC3
Protocol: as §1, §2

[8] = test system: human tumor cell lines; test: Tests A and B, all tumor cell lines together; type: cell-based; conditions: read-out: CC50 Geometric mean all
Protocol: as §2
Plates were incubated for 5 days with tested compounds.

[9] = test system: MT-4 T-lymphoid cell line; test: Test B: Cytostatic cell culture assay (CC50), CellTiter Glo, lymphoid tumor cell lines; conditions: Homo sapiens, MT4, 120 h, read-out: CC50 T-lymphoid MT-4
Protocol: Test B: Cytostatic Cell Culture Assay (CC50) for Lymphoid Tumor Cell Lines
This test is typically performed with cell lines that are derived from hematological tumors and grow in suspension. An example of such cell line is human MT-4 T-lymphoid cell line used for the determination of cytostatic activity of tested compounds. […] Cells were passaged in suspension twice a week and maintained at densities below 500,000 cells/mL. For CC50 determination, cells were seeded into 384-well plates at 2,000 cells/well in 20 μL of culture medium. Compounds were serially diluted in culture medium and added in triplicate to a final assay volume of 40 μL/well. Plates were incubated for 5 days with tested compounds. At the end of incubation, cell viability was determined by addition of 40 μL of CellTiter Glo reagent followed by a luminescence read-out.
Data analysis and CC50 value calculations were done using GraphPad Prism software (GraphPad Software, San Diego, Calif.) by applying nonlinear regression.

[10] = test system: BT549; test: Test A: Cytostatic cell culture assay (CC50), SRB, solid tumor cell lines; type: cell-based; conditions: Homo sapiens, BT-549, 120 h; BT549 breast tumor cells, 5 days, SRB; read-out: CC50 Breast BT549
Protocol: as §1, §2

## Nc1ncnc2c1ccn2[C@@H]1O[C@H](CO)[C@@H](O)[C@H]1O [Tubercidin, reference compound]
[1]
  CC50: 1 nM
[2]
  CC50: 18 nM
[3]
  CC50: 1 nM
[4]
  CC50: 11 nM
[5]
  CC50: 98 nM
[6]
  CC50: 11 nM
[7]
  CC50: 48 nM
[8]
  CC50: 10.3 nM
[9]
  CC50: 21 nM

## Nc1ccn([C@@H]2O[C@H](CO)[C@@H](O)C2(F)F)c(=O)n1 [Gemcitabine, reference compound]
[1]
  CC50: 7 nM
[10]
  CC50: 1 nM
[2]
  CC50: 3 nM
[3]
  CC50: 2 nM
[4]
  CC50: 3 nM
[5]
  CC50: 1 nM
[6]
  CC50: 2 nM
[7]
  CC50: 6 nM
[8]
  CC50: 2.4 nM
[9]
  CC50: 2 nM

## Nc1ncnc2c1c(-c1ccco1)cn2[C@@H]1O[C@H](CO)[C@@H](O)[C@H]1O [Compound 2f, 4-Amino-5-(furan-2-yl)-7-(β-D-ribofuranosyl)-7H-pyrrolo[2,3-d]pyrimidine]
[1]
  CC50: 35 nM
[2]
  CC50: 19 nM
[3]
  CC50: 48 nM
[4]
  CC50: 3 nM
[5]
  CC50: 17 nM
[6]
  CC50: 294 nM
[7]
  CC50: 4 nM
[8]
  CC50: 25.6 nM
[9]
  CC50: 86 nM

## Nc1ncnc2c1c(-c1cccs1)cn2[C@@H]1O[C@H](CO)[C@@H](O)[C@H]1O [Compound 2g, 4-Amino-7-(β-D-ribofuranosyl)-5-(thiophen-2-yl)-7H-pyrrolo[2,3-d]pyrimidine]
[1]
  CC50: 7 nM
[2]
  CC50: 133 nM
[3]
  CC50: 2.6 nM
[4]
  CC50: 11 nM
[5]
  CC50: 12 nM
[6]
  CC50: 3.7 nM
[7]
  CC50: 1620 nM
[8]
  CC50: 22.6 nM
[9]
  CC50: 35 nM

## Nc1nc(Cl)nc2c1ncn2[C@@H]1O[C@H](CO)[C@@H](O)[C@@H]1F [Clofarabine, reference compound]
[1]
  CC50: 86 nM
[2]
  CC50: 125 nM
[3]
  CC50: 106 nM
[4]
  CC50: 180 nM
[5]
  CC50: 1240 nM
[6]
  CC50: 40 nM
[7]
  CC50: 63 nM
[8]
  CC50: 116 nM
[9]
  CC50: 51 nM

## Nc1ncnc2c1c(-c1ccc[nH]1)cn2[C@@H]1O[C@H](CO)[C@@H](O)[C@H]1O [Compound 2k, 4-Amino-5-(1H-pyrrol-2-yl)-7-(β-D-ribofuranosyl)-7H-pyrrolo[2,3-d]pyrimidine]
[1]
  CC50: 160 nM
[10]
  CC50: 129 nM
[3]
  CC50: 65.2 nM
[5]
  CC50: 113 nM
[6]
  CC50: 333 nM
[7]
  CC50: 87.8 nM
[8]
  CC50: 128 nM
other
  melting point: 205 to 207 °C

## COc1ccc(-c2cn([C@@H]3O[C@H](CO)[C@@H](O)[C@H]3O)c3ncnc(N)c23)cc1 [Compound 2b, 4-Amino-5-(4-methoxyphenyl)-7-(β-D-ribofuranosyl)-7H-pyrrolo[2,3-d]pyrimidine]
[1]
  CC50: 701 nM
[2]
  CC50: 152 nM
[3]
  CC50: 633 nM
[4]
  CC50: 544 nM
[5]
  CC50: 811 nM
[6]
  CC50: 856 nM
[7]
  CC50: 1110 nM
[8]
  CC50: 768 nM
[9]
  CC50: 4300 nM
